Entries after “also recorded” stand apart in the source; their conditions may differ.

The test system of one experiment is chondrocytes. Put plainly: Rabbit chondrocyte proliferation in culture. Type of experiment: cell-based. To be noted: 10 μg/ml peptide; days 1, 2, and 3 after culture initiation; nuclei counted after Giemsa stain; FIGS. 1-4. How it is done: Chondrocytes were isolated from the cartilage of the knee joints of adult rabbits and cultured according to the method of Okazaki et al. (Ann. Rheum. Dis. 55:181-186, 1996). Briefly, cartilage explants were minced into small pieces (approximately 1.5 mm by 1.5 mm). The tissue pieces were digested at 37° C. sequentially in 0.05% hyaluronidase (415 U/mg protein) for 10 minutes, 0.2% Type III trypsin (10,000 U/mg protein, Sigma) and 0.53 mM EDTA for 15 minutes, and 0.2% Type I collagenase (136 U/mg protein, Sigma) for 30 minutes. The samples were then washed and incubated overnight at 37° C. in 5% CO2 in air in Dulbecco's modified Eagle's medium enriched with 10% fetal calf serum, 3.5 mg/ml glucose, 0.2% Type I collagenase and antibiotics (100 U/ml penicillin and 100 μg/ml streptomycin).
After this incubation, the cells were harvested and washed once with phosphate buffered saline (pH 7.2). The cells were then counted with a hemacytometer and resuspended at 1×10^5 cells/ml in Ham's F12 supplemented with 10% fetal calf serum and antibiotics. A 10 ml aliquot of cells was transferred to collagen coated 25 cm^2 flasks (coated with collagen isolated from rat tail tendons) and incubated at 37° C. in 5% CO2 in air. […] Cell numbers were quantitated by staining the cells with Giemsa stain and counting the number of nuclei detected via microscopy.

Another experiment addresses T1, AT2 receptor (Homo sapiens, UniProt P50052).
T1 sequence (P50052 1-363): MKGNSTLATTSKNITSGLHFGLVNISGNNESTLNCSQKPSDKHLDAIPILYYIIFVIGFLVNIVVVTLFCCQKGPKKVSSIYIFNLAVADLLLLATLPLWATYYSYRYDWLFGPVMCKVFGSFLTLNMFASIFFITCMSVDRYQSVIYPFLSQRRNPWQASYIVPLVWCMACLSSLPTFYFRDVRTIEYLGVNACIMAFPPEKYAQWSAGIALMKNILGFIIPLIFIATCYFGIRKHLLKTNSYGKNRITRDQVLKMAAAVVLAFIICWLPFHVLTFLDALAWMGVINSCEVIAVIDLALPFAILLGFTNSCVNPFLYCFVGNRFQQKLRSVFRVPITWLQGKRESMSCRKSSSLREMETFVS
To be noted: cited from earlier work.

The nature of experiment [1]: Effectiveness tests of AII fragments (method not described). The note with it: test not specified.

With “Asp-Arg-Val-Tyr-Ile-His-Pro-Phe (DRVYIHPF) [AII]”, in the experiment on chondrocytes, the “effect on chondrocyte proliferation” value is “accelerated the chondrocyte proliferation”. Also, in the experiment with AT2 receptor, the “times higher affinity for AT2 than AT1” value is recorded as 100 times.

As to His-Pro-Phe (HPF) [AII(6-8)], the effectiveness in tests entry in experiment [1] is reported as “not to be effective”.

Tyr-Ile-His-Pro-Phe (YIHPF) [AII(4-8)]: in experiment [1], the effectiveness in tests result is recorded as “not to be effective; also recorded: ineffective in repeated tests”.

The record behind these values is US6916783B2, “Methods for accelerating bone and cartilage growth and repair” (University of Southern California, priority 1998, dated 2005).
